Data as given in patent publication US11738008B2, “N-methyl-D-aspartic acid receptor modulators” (Emory University, priority 2018, dated 2023).
Where two headings read alike, the source gives them in different places.

Experiments:
[1] = molecular target: κ-opioid receptor (Homo sapiens, UniProt P41145); test: NIMH PDSP radioligand binding, κ-opioid receptor; conditions: for remaining activity at 10 µM: read-out: Radioligand binding in 10 μM compound (% control); for Ki: read-out: pKi values from non-linear regression of radioligand competition binding isotherms (converted)
Method: (§1) The NIMH PDSP is Directed by Bryan L. Roth at the University of North Carolina at Chapel Hill and Project Officer Jamie Driscoll at NIMH, Bethesda Md., USA. Radioligand binding was measured in the presence of 10 μM 1180-420 and 1180-447. […] For experimental details please refer to the PDSP web site https://pdsp.unc.edu/ims/investigator/web/. Both 1180-420 and 1180-447 were also tested at AMPA, nicotinic acetylcholine, serotonin, GABA, and glycine ion channels using a two-electrode voltage clamp assay.
(§2) Receptor binding profiles of compound 1180-447 were generously provided by the National Institute of Mental Health's Psychoactive Drug Screening Program, Contract # HHSN-271-2013-00017-C(NIMH PDSP). The NIMH PDSP is directed by Bryan L. Roth at the University of North Carolina at Chapel Hill and Project Officer Jamie Driscoll at NIMH, Bethesda Md., USA. Radioligand binding was measured in the presence of 10 μM 1180-447. […] For experimental details please refer to the PDSP web site https://pdsp.unc.edu/ims/investigator/web/.
(§3) The NIMH PDSP is Directed by Bryan L. Roth at the University of North Carolina at Chapel Hill and Project Officer Jamie Driscoll at NIMH, Bethesda Md., USA. Radioligand binding was measured in the presence of 10 μM 1180-420. […] For experimental details please refer to the PDSP web site https://pdsp.unc.edu/ims/investigator/web/.

[2] = molecular target: T1, 5-HT6 (Homo sapiens, UniProt P50406); test: NIMH PDSP radioligand binding, 5-HT6; conditions: read-out: Radioligand binding in 10 μM compound (% control)
T1 construct: NIMH PDSP (assay provider)
Method: as §1, §2, §3

[3] = molecular target: dopamine transporter (Homo sapiens, UniProt Q01959); test: NIMH PDSP radioligand binding, dopamine transporter; conditions: read-out: Radioligand binding in 10 μM compound (% control)
Method: as §1, §2, §3

[4] = test system: GABAA; test: NIMH PDSP radioligand binding, GABAA
Method: as §1, §2, §3

[5] = molecular target: rat GluN1/GluN2C (Rattus norvegicus, UniProt Q00961); test: Two-electrode voltage clamp recordings in Xenopus laevis oocytes, potentiation of GluN1/GluN2C; type: cell-based
Method: (§4) Xenopus laevis oocytes were purchased unfertilized from Ecocyte (Austin, Tex.). The oocytes were injected with mRNA to express recombinant rat GluN1/GluN2A, GluN1/GluN2B, GluN1/GluN2C, and GluN1/GluN2D and two-electrode voltage clamp (TEVC) recordings were performed. Drs. S. Heinemann (Salk Institute), S. Nakanishi (Kyoto University), and P. Seeburg (University of Heidelberg) provided the cDNAs for rat GluN1-1a (GenBank accession numbers U11418 and U08261, referred to as GluN1 henceforth), GluN2A (D13211), GluN2B (U11419), GluN2C (M91563), and GluN2D (D13213). GluN2C and GluN2D were altered according to literature precedent. […] To prevent the current increase typically seen during experiments with oocytes expressing GluN1/GluN2A receptors, the oocytes were either injected with 20 nL of 100 mM K-BAPTA (potassium 1,2-bis(o-aminophenoxy)ethane-N,N,N,N-tetraacetic acid) or pretreated with 50 μM BAPTA-AM (1,2-bis(o-aminophenoxy)ethane-N,N,N,N-tetraacetic acid tetraacetoxymethyl ester) for 10 minutes.

[6] = molecular target: rat GluN1/GluN2C (Rattus norvegicus, UniProt P35439+Q00961); test: as above; type: cell-based
Method: as §4

[7] = molecular target: M4 (Homo sapiens, UniProt P08173); test: NIMH PDSP radioligand binding, M4; conditions: read-out: Radioligand binding in 10 μM compound (% control)
Method: as §1, §2, §3

[8] = molecular target: T2, 5-HT1B (Homo sapiens, UniProt P28222); test: NIMH PDSP radioligand binding, 5-HT1B; conditions: read-out: Radioligand binding in 10 μM compound (% control)
T2 construct: NIMH PDSP (assay provider)
Method: as §1, §2, §3

[9] = molecular target: T3, 5-HT2B (Homo sapiens, UniProt P41595); test: NIMH PDSP radioligand binding, 5-HT2B; conditions: read-out: Radioligand binding in 10 μM compound (% control)
T3 construct: NIMH PDSP (assay provider)
Method: as §1, §2, §3

[10] = molecular target: H3 (Homo sapiens, UniProt Q9Y5N1); test: NIMH PDSP radioligand binding, H3; conditions: read-out: Radioligand binding in 10 μM compound (% control)
Method: as §1, §2, §3

[11] = molecular target: T4, 5-HT1A (Homo sapiens, UniProt P08908); test: NIMH PDSP radioligand binding, 5-HT1A; conditions: read-out: Radioligand binding in 10 μM compound (% control)
T4 construct: NIMH PDSP (assay provider)
Method: as §1, §2, §3

[12] = molecular target: H4 (Homo sapiens, UniProt Q9H3N8); test: NIMH PDSP radioligand binding, H4; conditions: read-out: Radioligand binding in 10 μM compound (% control)
Method: as §1, §2, §3

[13] = molecular target: T5, D1 (Homo sapiens, UniProt P21728); test: NIMH PDSP radioligand binding, D1; conditions: read-out: Radioligand binding in 10 μM compound (% control)
T5 construct: NIMH PDSP (assay provider)
Method: as §1, §2, §3

[14] = molecular target: serotonin transporter (Homo sapiens, UniProt P31645); test: NIMH PDSP radioligand binding, serotonin transporter; conditions: read-out: Radioligand binding in 10 μM compound (% control)
Method: as §1, §2, §3

[15] = molecular target: T6, 5-HT2C (Homo sapiens, UniProt P28335); test: NIMH PDSP radioligand binding, 5-HT2C; conditions: for remaining activity at 10 µM: read-out: Radioligand binding in 10 μM compound (% control)
T6 construct: NIMH PDSP (assay provider)
T6 sequence (P28335 33-458): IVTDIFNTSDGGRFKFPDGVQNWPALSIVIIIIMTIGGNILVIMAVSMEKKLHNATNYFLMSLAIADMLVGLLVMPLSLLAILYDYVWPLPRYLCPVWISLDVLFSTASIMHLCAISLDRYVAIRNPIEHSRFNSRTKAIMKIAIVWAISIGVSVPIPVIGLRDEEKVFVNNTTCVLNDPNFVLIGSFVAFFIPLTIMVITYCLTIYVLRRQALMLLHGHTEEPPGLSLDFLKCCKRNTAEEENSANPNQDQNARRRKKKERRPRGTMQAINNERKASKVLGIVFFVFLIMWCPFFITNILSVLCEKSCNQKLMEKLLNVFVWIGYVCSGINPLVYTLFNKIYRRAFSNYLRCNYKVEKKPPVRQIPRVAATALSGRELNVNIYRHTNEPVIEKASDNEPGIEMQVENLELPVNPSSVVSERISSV
Method: as §1, §2, §3

[16] = molecular target: T7, D3 (Homo sapiens, UniProt P35462); test: NIMH PDSP radioligand binding, D3; conditions: read-out: Radioligand binding in 10 μM compound (% control)
T7 construct: NIMH PDSP (assay provider)
Method: as §1, §2, §3

[17] = molecular target: T8, 5-HT5A (Homo sapiens, UniProt P47898); test: NIMH PDSP radioligand binding, 5-HT5A; conditions: read-out: Radioligand binding in 10 μM compound (% control)
T8 construct: NIMH PDSP (assay provider)
Method: as §1, §2, §3

[18] = molecular target: T9, GluA2 (Homo sapiens, UniProt P42262); test: Off-target two-electrode voltage clamp assay, GluA2; type: cell-based; conditions: 10 μM, mean ± SEM
T9 construct: expressed in transfected cells
Method: as §1

[19] = molecular target: σ2 (Homo sapiens, UniProt Q5BJF2); test: NIMH PDSP radioligand binding, σ2; conditions: for remaining activity at 10 µM: read-out: Radioligand binding in 10 μM compound (% control); for Ki: read-out: pKi values from non-linear regression of radioligand competition binding isotherms (converted)
Method: as §1, §2, §3

[20] = molecular target: M3 (Homo sapiens, UniProt P20309); test: NIMH PDSP radioligand binding, M3; conditions: read-out: Radioligand binding in 10 μM compound (% control)
Method: as §1, §2, §3

[21] = molecular target: translocator protein (peripheral benzodiazepine site) (Homo sapiens, UniProt P30536); test: NIMH PDSP radioligand binding, translocator protein; conditions: read-out: Radioligand binding in 10 μM compound (% control)
Method: as §1, §2, §3

σ2, sequence (Q5BJF2 whole entry): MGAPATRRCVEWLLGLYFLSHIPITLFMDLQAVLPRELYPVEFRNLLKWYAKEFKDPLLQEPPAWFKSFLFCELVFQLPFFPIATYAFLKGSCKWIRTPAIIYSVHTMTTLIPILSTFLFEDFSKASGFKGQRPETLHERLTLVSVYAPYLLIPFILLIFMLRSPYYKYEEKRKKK
κ-opioid receptor, sequence (P41145 whole entry): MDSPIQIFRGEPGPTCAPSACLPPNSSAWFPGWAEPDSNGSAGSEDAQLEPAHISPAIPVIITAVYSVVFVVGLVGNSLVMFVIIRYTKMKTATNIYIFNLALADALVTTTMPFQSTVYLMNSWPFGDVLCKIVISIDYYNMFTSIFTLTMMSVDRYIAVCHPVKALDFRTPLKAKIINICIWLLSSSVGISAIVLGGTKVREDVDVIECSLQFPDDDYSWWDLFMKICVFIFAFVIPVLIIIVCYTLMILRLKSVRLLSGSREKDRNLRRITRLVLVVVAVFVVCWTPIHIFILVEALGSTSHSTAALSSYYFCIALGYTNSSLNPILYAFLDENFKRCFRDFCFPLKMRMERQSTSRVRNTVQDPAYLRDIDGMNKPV
dopamine transporter, sequence (Q01959 whole entry): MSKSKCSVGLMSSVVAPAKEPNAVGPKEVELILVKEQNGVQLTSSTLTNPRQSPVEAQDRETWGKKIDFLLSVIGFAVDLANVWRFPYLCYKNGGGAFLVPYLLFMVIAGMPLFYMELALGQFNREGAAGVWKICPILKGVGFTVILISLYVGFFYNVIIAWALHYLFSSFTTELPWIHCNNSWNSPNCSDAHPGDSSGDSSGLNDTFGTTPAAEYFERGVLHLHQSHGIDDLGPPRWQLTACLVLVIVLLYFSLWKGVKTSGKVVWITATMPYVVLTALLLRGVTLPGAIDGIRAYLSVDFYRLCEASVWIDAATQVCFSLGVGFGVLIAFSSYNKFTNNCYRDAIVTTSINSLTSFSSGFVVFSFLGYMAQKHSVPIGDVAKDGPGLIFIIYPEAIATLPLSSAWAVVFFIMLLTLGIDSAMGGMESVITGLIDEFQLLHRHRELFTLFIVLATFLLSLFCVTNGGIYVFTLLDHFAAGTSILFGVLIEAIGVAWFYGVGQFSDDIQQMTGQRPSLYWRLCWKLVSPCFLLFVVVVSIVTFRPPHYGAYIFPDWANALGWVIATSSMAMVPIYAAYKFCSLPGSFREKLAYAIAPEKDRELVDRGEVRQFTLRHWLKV
T3 sequence (P41595 whole entry, species assumed): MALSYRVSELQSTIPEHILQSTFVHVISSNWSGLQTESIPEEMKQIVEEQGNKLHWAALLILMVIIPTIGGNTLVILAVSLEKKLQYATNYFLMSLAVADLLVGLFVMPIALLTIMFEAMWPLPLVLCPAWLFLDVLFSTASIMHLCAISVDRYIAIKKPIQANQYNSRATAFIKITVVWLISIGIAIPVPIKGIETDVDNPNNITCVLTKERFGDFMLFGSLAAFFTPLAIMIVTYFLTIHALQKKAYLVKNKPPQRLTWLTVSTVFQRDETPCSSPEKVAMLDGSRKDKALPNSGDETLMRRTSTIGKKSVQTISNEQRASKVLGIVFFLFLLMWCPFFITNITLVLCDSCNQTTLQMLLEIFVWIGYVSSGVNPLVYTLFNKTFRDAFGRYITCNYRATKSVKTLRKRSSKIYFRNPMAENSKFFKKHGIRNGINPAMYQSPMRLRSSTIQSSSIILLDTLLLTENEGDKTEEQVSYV
T9 sequence (P42262 25-883, species assumed): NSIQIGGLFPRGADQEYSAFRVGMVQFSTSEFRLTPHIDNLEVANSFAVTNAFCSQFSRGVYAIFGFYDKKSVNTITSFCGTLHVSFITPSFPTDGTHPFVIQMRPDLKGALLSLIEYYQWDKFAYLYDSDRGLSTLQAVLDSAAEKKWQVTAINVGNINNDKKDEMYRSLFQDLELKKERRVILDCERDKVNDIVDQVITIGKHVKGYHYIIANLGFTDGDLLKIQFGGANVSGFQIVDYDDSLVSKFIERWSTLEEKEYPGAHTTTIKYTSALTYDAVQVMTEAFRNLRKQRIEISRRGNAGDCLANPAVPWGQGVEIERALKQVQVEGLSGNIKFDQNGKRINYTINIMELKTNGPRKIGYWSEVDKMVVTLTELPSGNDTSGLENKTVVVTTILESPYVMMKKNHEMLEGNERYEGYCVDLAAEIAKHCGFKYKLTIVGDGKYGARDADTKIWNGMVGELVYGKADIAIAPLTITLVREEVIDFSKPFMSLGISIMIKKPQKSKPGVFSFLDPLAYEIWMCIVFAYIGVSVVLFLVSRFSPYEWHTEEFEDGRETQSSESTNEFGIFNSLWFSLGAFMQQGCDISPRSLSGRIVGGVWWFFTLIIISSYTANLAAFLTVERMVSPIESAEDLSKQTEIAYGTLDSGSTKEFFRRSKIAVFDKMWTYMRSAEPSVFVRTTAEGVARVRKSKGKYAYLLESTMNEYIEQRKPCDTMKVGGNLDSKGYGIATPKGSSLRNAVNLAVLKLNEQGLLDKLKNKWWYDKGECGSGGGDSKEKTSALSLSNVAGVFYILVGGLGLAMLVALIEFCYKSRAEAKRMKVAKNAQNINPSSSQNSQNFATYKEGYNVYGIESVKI
T2 sequence (P28222 whole entry, species assumed): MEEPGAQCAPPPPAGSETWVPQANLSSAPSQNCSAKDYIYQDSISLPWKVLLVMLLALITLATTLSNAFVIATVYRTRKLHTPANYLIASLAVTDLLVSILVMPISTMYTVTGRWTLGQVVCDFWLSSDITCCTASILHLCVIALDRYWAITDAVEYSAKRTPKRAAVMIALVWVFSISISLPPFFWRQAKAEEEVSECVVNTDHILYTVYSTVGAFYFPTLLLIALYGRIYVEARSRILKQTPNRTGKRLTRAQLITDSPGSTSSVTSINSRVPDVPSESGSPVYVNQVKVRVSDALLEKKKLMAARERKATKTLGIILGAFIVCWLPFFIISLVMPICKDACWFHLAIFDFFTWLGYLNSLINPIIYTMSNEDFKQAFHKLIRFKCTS
T4 sequence (P08908 whole entry, species assumed): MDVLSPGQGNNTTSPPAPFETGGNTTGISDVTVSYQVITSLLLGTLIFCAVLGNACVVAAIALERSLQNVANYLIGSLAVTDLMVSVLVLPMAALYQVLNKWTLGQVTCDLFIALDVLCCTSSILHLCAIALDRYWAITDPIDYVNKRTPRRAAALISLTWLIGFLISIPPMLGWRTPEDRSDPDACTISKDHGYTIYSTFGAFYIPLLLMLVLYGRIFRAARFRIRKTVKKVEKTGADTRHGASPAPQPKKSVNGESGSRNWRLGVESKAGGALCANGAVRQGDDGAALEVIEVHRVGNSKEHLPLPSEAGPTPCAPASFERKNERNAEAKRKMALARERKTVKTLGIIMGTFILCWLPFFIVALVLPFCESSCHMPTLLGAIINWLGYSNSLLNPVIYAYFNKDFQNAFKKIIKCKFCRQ
M3, sequence (P20309 whole entry): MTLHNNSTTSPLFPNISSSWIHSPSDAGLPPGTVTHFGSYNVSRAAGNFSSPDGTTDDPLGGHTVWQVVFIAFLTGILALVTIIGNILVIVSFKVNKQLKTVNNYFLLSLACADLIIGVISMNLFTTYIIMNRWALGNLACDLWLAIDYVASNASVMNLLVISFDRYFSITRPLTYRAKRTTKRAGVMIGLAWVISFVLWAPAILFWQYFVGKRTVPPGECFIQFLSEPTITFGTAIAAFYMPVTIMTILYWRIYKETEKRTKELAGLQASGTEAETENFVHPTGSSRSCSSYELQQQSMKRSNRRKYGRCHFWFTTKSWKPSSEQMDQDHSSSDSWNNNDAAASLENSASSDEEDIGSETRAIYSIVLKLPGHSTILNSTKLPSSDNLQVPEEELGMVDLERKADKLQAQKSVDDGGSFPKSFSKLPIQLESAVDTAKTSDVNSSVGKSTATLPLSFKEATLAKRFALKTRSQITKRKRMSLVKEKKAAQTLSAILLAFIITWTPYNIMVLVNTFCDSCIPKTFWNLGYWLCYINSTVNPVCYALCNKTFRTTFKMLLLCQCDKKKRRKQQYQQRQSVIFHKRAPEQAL
serotonin transporter, sequence (P31645 whole entry): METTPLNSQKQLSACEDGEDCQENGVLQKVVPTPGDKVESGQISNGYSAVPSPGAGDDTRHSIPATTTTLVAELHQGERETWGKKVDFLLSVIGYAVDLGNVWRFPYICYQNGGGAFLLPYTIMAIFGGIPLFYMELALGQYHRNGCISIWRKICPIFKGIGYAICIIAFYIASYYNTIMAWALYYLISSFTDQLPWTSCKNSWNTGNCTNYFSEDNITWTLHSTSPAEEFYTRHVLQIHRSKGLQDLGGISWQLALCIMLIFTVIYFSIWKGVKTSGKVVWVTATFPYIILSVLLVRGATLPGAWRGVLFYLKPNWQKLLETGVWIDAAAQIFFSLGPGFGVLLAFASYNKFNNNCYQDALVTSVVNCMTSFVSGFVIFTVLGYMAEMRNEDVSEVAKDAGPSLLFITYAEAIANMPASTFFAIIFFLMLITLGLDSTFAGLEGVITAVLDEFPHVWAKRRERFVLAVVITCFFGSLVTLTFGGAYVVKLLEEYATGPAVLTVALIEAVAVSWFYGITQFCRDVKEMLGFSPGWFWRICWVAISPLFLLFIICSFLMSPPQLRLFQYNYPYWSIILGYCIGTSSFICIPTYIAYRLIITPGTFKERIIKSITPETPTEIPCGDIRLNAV
T8 sequence (P47898 whole entry, species assumed): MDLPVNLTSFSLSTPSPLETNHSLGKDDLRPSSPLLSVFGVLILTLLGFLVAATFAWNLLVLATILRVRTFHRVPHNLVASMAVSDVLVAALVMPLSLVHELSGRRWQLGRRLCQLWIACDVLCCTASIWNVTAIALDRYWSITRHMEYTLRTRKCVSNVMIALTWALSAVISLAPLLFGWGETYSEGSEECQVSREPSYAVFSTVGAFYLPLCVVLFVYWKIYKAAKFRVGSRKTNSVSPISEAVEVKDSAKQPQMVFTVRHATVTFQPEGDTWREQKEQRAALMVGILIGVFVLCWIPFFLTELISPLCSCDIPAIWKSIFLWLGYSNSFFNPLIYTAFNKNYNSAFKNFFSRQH

COc1ccc(OCC2c3cccn3CCN2C(=O)c2cccc(Cl)c2)cc1 (centres unmarked) [1180-420, (3-Chlorophenyl)(1-((4-methoxyphenoxy)methyl)-3,4-dihydropyrrolo[1,2-a]pyrazin-2(1H)-yl)methanone]
remaining activity at 10 µM [1]: 32% | Ki [1]: 1580 nM | remaining activity at 10 µM [2]: 75% | remaining activity at 10 µM [3]: 98% | Radioligand binding in 10 μM compound (% control) [4]: 110 % control | GluN2C Max % ([5]; maximal response, current without potentiator = 100%): 312% | EC50 ([6]; read-out: GluN2C EC50): 1900 nM | remaining activity at 10 µM [7]: 84% | remaining activity at 10 µM [8]: 95% | remaining activity at 10 µM [9]: 97% | remaining activity at 10 µM [10]: 99% | remaining activity at 10 µM [11]: 110% | remaining activity at 10 µM [12]: 90% | remaining activity at 10 µM [13]: 59% | remaining activity at 10 µM [14]: 86% | remaining activity at 10 µM [15]: 113% | remaining activity at 10 µM [16]: 71% | remaining activity at 10 µM [17]: 95% | % control response [18]: 101.6 ± 1.3 % control response | remaining activity at 10 µM [19]: 48% | Ki [19]: 1580 nM | remaining activity at 10 µM [20]: 69% | remaining activity at 10 µM [21]: 67%

COc1ccc(OCC2c3cccn3CC(=O)N2Cc2cccc(C(F)(F)F)c2)cc1 (racemic) [1180-447, 1-((4-Methoxyphenoxy)methyl)-2-(3-(trifluoromethyl)benzyl)-1,2-dihydropyrrolo[1,2-a]pyrazin-3(4H)-one]
remaining activity at 10 µM [1]: 47% | Ki [1]: 1580 nM | remaining activity at 10 µM [2]: 85% | remaining activity at 10 µM [3]: 76% | Radioligand binding in 10 μM compound (% control) [4]: 118 % control | GluN2C (max) (%) [5]: (298) % | EC50 ([6]; read-out: GluN2C pEC50 [95% CI] (converted)): 1260 nM | remaining activity at 10 µM [7]: 100% | remaining activity at 10 µM [8]: 109% | remaining activity at 10 µM [9]: 78% | remaining activity at 10 µM [10]: 79% | remaining activity at 10 µM [11]: 101% | remaining activity at 10 µM [12]: 107% | remaining activity at 10 µM [13]: 87% | remaining activity at 10 µM [14]: 91% | remaining activity at 10 µM [15]: 32% | Ki ([15]; read-out: pKi values from non-linear regression of radioligand competition binding isotherms (converted)): > 10000 nM | remaining activity at 10 µM [16]: 93% | remaining activity at 10 µM [17]: 92% | % control response [18]: 99.3 ± 2.9 % control response | remaining activity at 10 µM [19]: 32% | Ki [19]: 1580 nM | remaining activity at 10 µM [20]: 87% | remaining activity at 10 µM [21]: 84%
